# Source: patent US20050069522A1, “Combination pharmaceutical agents as inhibitors of HCV replication” (priority 2002, published 2005)
# Test system: HCV replicon (HCV 1b-377-neo replicon cells)
# Test: HCV replicon cell line FRET assay
# Format: cell-based
# Settings: Hepatitis C virus; HCV replicon cell line, FRET assay; read-out: Replicon Inhibition Range EC50
row,Structure (SMILES),EC50
1,Cc1cnc(CN2C(=O)C(c3ccc(NC(=O)[C@@H]4CCCN4C(=O)OCc4ccccc4)cc3)S/C2=N\c2ccc(N3CCOCC3)cc2)cn1 (some centres unmarked) [Compound 70],< 100 nM
2,Cc1cnc(CN2C(=O)C(c3ccc(NC(=O)[C@@H]4CCC(=O)N4C(=O)OCc4ccccc4)cc3)S/C2=N\c2ccc(N3CCOCC3)cc2)cn1 (some centres unmarked) [Compound 71],< 100 nM
3,C[C@H](NC(=O)OCc1ccccc1)C(=O)Nc1ccc(C2S/C(=N\c3ccc(N4CCOCC4)cc3)N(Cc3ccccn3)C2=O)cc1 (some centres unmarked) [Compound 72],< 100 nM
4,O=C(Nc1ccc(C2S/C(=N\c3ccc(N4CCOCC4)cc3)N(Cc3ccccn3)C2=O)cc1)[C@@H]1CCCN1C(=O)OCc1ccccc1 (some centres unmarked) [Compound 73],< 100 nM
5,C[C@@H](C(=O)Nc1ccc(C2S/C(=N\c3ccc(N4CCOCC4)cc3)N(Cc3ccccn3)C2=O)cc1)N(C)C(=O)OCc1ccccc1 (some centres unmarked) [Compound 74],100 to 1000 nM
6,C[C@H](NC(=O)OCc1ccccc1)C(=O)Nc1ccc(C2S/C(=N\c3cccnc3)N(Cc3cccc(F)c3)C2=O)cc1 (some centres unmarked) [Compound 76],< 100 nM
7,O=C(Nc1ccc(C2S/C(=N\c3cccnc3)N(Cc3cccc(F)c3)C2=O)cc1)[C@@H]1CCCN1C(=O)OCc1ccccc1 (some centres unmarked) [Compound 77],< 100 nM
8,O=C(Nc1ccc(C2S/C(=N\c3ccc(N4CCOCC4)cc3)N(Cc3ccccn3)C2=O)cc1)[C@@H]1C[C@@H](O)CN1C(=O)OCc1ccccc1 (some centres unmarked) [Compound 78],100 to 1000 nM
9,CC(C)(C)O[C@@H]1C[C@@H](C(=O)Nc2ccc(C3S/C(=N\c4ccc(N5CCOCC5)cc4)N(Cc4ccccn4)C3=O)cc2)N(C(=O)OCc2ccccc2)C1 (some centres unmarked) [Compound 79],1000 to 5000 nM
10,C[C@H](NC(=O)OCc1ccccc1)C(=O)Nc1ccc(C2S/C(=N\c3ccc(N4CCOCC4)cc3)N(Cc3cccnc3)C2=O)cc1 (some centres unmarked) [Compound 80],100 to 1000 nM
11,C[C@H](NC(=O)OCc1ccccc1)C(=O)Nc1ccc(C2S/C(=N\c3ccc(N4CCOCC4)cc3)N(Cc3ccncc3)C2=O)cc1 (some centres unmarked) [Compound 82],< 100 nM
12,O=C(Nc1ccc(C2S/C(=N\c3ccc(N4CCOCC4)cc3)N(Cc3ccncc3)C2=O)cc1)[C@@H]1CCCN1C(=O)OCc1ccccc1 (some centres unmarked) [Compound 83],< 100 nM
13,CN=C1SC(c2ccc(NC(=O)[C@H](C)NC(=O)OCc3ccccc3)cc2)C(=O)N1Cc1ccccn1 (some centres unmarked) [Compound 84],100 to 1000 nM
14,CN=C1SC(c2ccc(NC(=O)[C@@H]3CCCN3C(=O)OCc3ccccc3)cc2)C(=O)N1Cc1ccccn1 (some centres unmarked) [Compound 85],< 100 nM
15,C[C@H](NC(=O)OCc1ccccc1)C(=O)Nc1ccc(C2S/C(=N\Cc3ccccn3)N(C)C2=O)cc1 (some centres unmarked) [Compound 86],1000 to 5000 nM
16,CN1C(=O)C(c2ccc(NC(=O)[C@@H]3CCCN3C(=O)OCc3ccccc3)cc2)S/C1=N\Cc1ccccn1 (some centres unmarked) [Compound 87],100 to 1000 nM
17,O=C(Nc1ccc(C2S/C(=N\c3ccc(N4CCOCC4)cc3)N(Cc3ccccn3)C2=O)cc1)[C@@H]1CCC(=O)N1C(=O)OCc1ccccc1 (some centres unmarked) [Compound 88],< 100 nM
18,CC(C)(C)/N=C1\SC(c2ccc(NC(=O)[C@@H]3CCCN3C(=O)OCc3ccccc3)cc2)C(=O)N1Cc1ccccn1 (some centres unmarked) [Compound 89],100 to 1000 nM
19,CCOC(=O)/N=C1\SC(c2ccc(NC(=O)[C@@H]3CCCN3C(=O)OCc3ccccc3)cc2)C(=O)N1Cc1ccccn1 (some centres unmarked) [Compound 91],< 100 nM
20,CCOC(=O)/N=C1\SC(c2ccc(NC(=O)[C@H](C)NC(=O)OCc3ccccc3)cc2)C(=O)N1Cc1cccnc1 (some centres unmarked) [Compound 92],< 100 nM

row,Structure (SMILES),EC50
1,O=C(Nc1ccc(C2S/C(=N\c3ccc(N4CCOCC4)cc3)N(c3ccccn3)C2=O)cc1)[C@@H]1CCCN1C(=O)OCc1ccccc1 (some centres unmarked) [Compound 94],< 100 nM
2,Cc1cnc(CN2C(=O)C(c3ccc(NC(=O)[C@@H]4CCCN4C(=O)Cc4ccccc4)cc3)S/C2=N\c2ccc(N3CCOCC3)cc2)cn1 (some centres unmarked) [Compound 95],< 100 nM
3,C[C@H](NC(=O)Cc1ccccc1)C(=O)Nc1ccc(C2S/C(=N\c3cccc(F)c3)N(Cc3ccccn3)C2=O)cc1 (some centres unmarked) [Compound 96],< 100 nM
4,O=C(Nc1ccc(C2S/C(=N\c3cccc(F)c3)N(Cc3ccccn3)C2=O)cc1)[C@@H]1CCCN1C(=O)Cc1ccccc1 (some centres unmarked) [Compound 97],< 100 nM
5,O=C(Nc1ccc(C2S/C(=N\c3ccc(N4CCOCC4)cc3)N(Cc3ccccn3)C2=O)cc1)[C@@H]1CCCN1C(=O)Cc1ccccc1 (some centres unmarked) [Compound 98],< 100 nM
6,C[C@H](NC(=O)Cc1ccccc1)C(=O)Nc1ccc(C2S/C(=N\c3ccc(N4CCOCC4)cc3)N(Cc3ccccn3)C2=O)cc1 (some centres unmarked) [Compound 99],< 100 nM
7,O=C(Nc1ccc(C2S/C(=N\c3cccnc3)N(Cc3cccc(F)c3)C2=O)cc1)[C@@H]1CCCN1C(=O)Cc1ccccc1 (some centres unmarked) [Compound 100],< 100 nM
8,C/N=C1\SC(c2ccc(NC(=O)[C@@H]3CCCN3C(=O)Cc3ccccc3)cc2)C(=O)N1Cc1ccccn1 (some centres unmarked) [Compound 101],< 100 nM
9,CC(C)/N=C1\SC(c2ccc(NC(=O)[C@H](C)NC(=O)Cc3ccccc3)cc2)C(=O)N1Cc1ccccn1 (some centres unmarked) [Compound 102],< 100 nM
10,CN(C)c1ccc(CC(=O)N2CCC[C@H]2C(=O)Nc2ccc(C3S/C(=N\c4ccc(N5CCOCC5)cc4)N(Cc4ccccn4)C3=O)cc2)cc1 (some centres unmarked) [Compound 103],100 to 1000 nM
11,O=C(Nc1ccc(C2S/C(=N\c3ccc(N4CCOCC4)cc3)N(Cc3ccccn3)C2=O)cc1)[C@@H]1CCCN1C(=O)Cc1c(Cl)cccc1Cl (some centres unmarked) [Compound 104],< 100 nM
12,O=C(Nc1ccc(C2S/C(=N\c3ccc(N4CCOCC4)cc3)N(Cc3ccccn3)C2=O)cc1)[C@@H]1CCCN1C(=O)C1(c2ccc(F)cc2)CCCC1 (some centres unmarked) [Compound 105],100 to 1000 nM
13,COc1ccc(CC(=O)N2CCC[C@H]2C(=O)Nc2ccc(C3S/C(=N\c4ccc(N5CCOCC5)cc4)N(Cc4ccccn4)C3=O)cc2)cc1 (some centres unmarked) [Compound 106],100 to 1000 nM
14,O=C(Nc1ccc(C2S/C(=N\c3ccc(N4CCOCC4)cc3)N(Cc3ccccn3)C2=O)cc1)[C@@H]1CCCN1C(=O)C(c1ccccc1)c1ccccc1 (some centres unmarked) [Compound 107],< 100 nM
15,O=C(Nc1ccc(C2S/C(=N\c3ccc(N4CCOCC4)cc3)N(Cc3ccccn3)C2=O)cc1)[C@@H]1CCCN1C(=O)Cc1ccccc1Cl (some centres unmarked) [Compound 108],< 100 nM
16,O=C(Nc1ccc(C2S/C(=N\c3ccc(N4CCOCC4)cc3)N(Cc3ccccn3)C2=O)cc1)[C@@H]1CCCN1C(=O)Cc1ccc(C(F)(F)F)cc1 (some centres unmarked) [Compound 109],1000 to 5000 nM
17,O=C(Nc1ccc(C2S/C(=N\c3ccc(N4CCOCC4)cc3)N(Cc3ccccn3)C2=O)cc1)[C@@H]1CCCN1C(=O)C(F)c1ccccc1 (some centres unmarked) [Compound 110],< 100 nM
18,C/N=C1\SC(c2ccc(NC(=O)[C@H](C)NC(=O)C(c3ccccc3)c3ccccc3)cc2)C(=O)N1Cc1ccccn1 (some centres unmarked) [Compound 111],< 100 nM
19,C[C@H](NC(=O)C(c1ccccc1)c1ccccc1)C(=O)Nc1ccc(C2S/C(=N\c3ccc(N4CCOCC4)cc3)N(Cc3ccccn3)C2=O)cc1 (some centres unmarked) [Compound 112],< 100 nM
20,O=C(Nc1ccc(C2S/C(=N\c3ccc(N4CCOCC4)cc3)N(Cc3ccccn3)C2=O)cc1)[C@@H]1CCC(=O)N1C(=O)C(c1ccccc1)c1ccccc1 (some centres unmarked) [Compound 113],100 to 1000 nM

row,Structure (SMILES),EC50
1,C[C@H](C(=O)N1CCC[C@H]1C(=O)Nc1ccc(C2S/C(=N\c3ccc(N4CCOCC4)cc3)N(Cc3ccccn3)C2=O)cc1)c1ccccc1 (some centres unmarked) [Compound 114],< 100 nM
2,C[C@@H](C(=O)N1CCC[C@H]1C(=O)Nc1ccc(C2S/C(=N\c3ccc(N4CCOCC4)cc3)N(Cc3ccccn3)C2=O)cc1)c1ccccc1 (some centres unmarked) [Compound 115],< 100 nM
3,CO[C@@H](C(=O)N1CCC[C@H]1C(=O)Nc1ccc(C2S/C(=N\c3ccc(N4CCOCC4)cc3)N(Cc3ccccn3)C2=O)cc1)c1ccccc1 (some centres unmarked) [Compound 116],< 100 nM
4,CO[C@H](C(=O)N1CCC[C@H]1C(=O)Nc1ccc(C2S/C(=N\c3ccc(N4CCOCC4)cc3)N(Cc3ccccn3)C2=O)cc1)c1ccccc1 (some centres unmarked) [Compound 117],< 100 nM
5,O=C(Nc1ccc(C2S/C(=N\c3ccc(N4CCOCC4)cc3)N(Cc3ccccn3)C2=O)cc1)[C@@H]1CCCN1C(=O)C1(c2ccccc2)CC1 (some centres unmarked) [Compound 118],< 100 nM
6,O=C(C(=O)N1CCC[C@H]1C(=O)Nc1ccc(C2S/C(=N\c3ccc(N4CCOCC4)cc3)N(Cc3ccccn3)C2=O)cc1)c1ccccc1 (some centres unmarked) [Compound 119],< 100 nM
7,CC(C)/N=C1\SC(c2ccc(NC(=O)[C@H](C)NC(=O)[C@@H](O)c3ccccc3)cc2)C(=O)N1Cc1ccccn1 (some centres unmarked) [Compound 120],< 100 nM
8,CC(C)/N=C1\SC(c2ccc(NC(=O)[C@H](C)NC(=O)[C@@H](C)c3ccccc3)cc2)C(=O)N1Cc1ccccn1 (some centres unmarked) [Compound 121],100 to 1000 nM
9,CO[C@H](C(=O)N[C@@H](C)C(=O)Nc1ccc(C2S/C(=N\C(C)C)N(Cc3ccccn3)C2=O)cc1)c1ccccc1 (some centres unmarked) [Compound 122],< 100 nM
10,CC(C)/N=C1\SC(c2ccc(NC(=O)[C@H](C)NC(=O)C(c3ccccc3)c3ccccc3)cc2)C(=O)N1Cc1ccccn1 (some centres unmarked) [Compound 123],< 100 nM
11,C[C@H](NC(=O)CCc1ccccc1)C(=O)Nc1ccc(C2S/C(=N\c3cccc(F)c3)N(Cc3ccco3)C2=O)cc1 (some centres unmarked) [Compound 125],1000 to 5000 nM
12,C[C@H](NC(=O)c1ccccc1)C(=O)Nc1ccc(C2S/C(=N\c3cccc(F)c3)N(Cc3ccco3)C2=O)cc1 (some centres unmarked) [Compound 126],1000 to 5000 nM
13,O=C(Nc1ccc(C2S/C(=N\c3cccc(F)c3)N(Cc3ccco3)C2=O)cc1)[C@@H]1CCCN1C(=O)Cc1ccc(Cl)cc1 (some centres unmarked) [Compound 128],100 to 1000 nM
14,O=C(Nc1ccc(C2S/C(=N\c3cccc(F)c3)N(Cc3ccco3)C2=O)cc1)[C@@H]1CCCN1C(=O)Cc1ccncc1 (some centres unmarked) [Compound 129],100 to 1000 nM
15,O=C(Nc1ccc(C2S/C(=N\c3cccc(F)c3)N(Cc3ccco3)C2=O)cc1)[C@@H]1CCCN1C(=O)COc1ccccc1 (some centres unmarked) [Compound 130],100 to 1000 nM
16,O=C(Nc1ccc(C2S/C(=N\c3ccc(N4CCOCC4)cc3)N(Cc3ccccn3)C2=O)cc1)[C@@H]1CCCN1S(=O)(=O)Cc1ccccc1 (some centres unmarked) [Compound 132],1000 to 5000 nM
17,C[C@H](NC(=O)NCc1ccccc1)C(=O)Nc1ccc(C2S/C(=N\c3cccc(F)c3)N(Cc3ccco3)C2=O)cc1 (some centres unmarked) [Compound 133],100 to 1000 nM
18,C[C@H](NC(=O)Nc1ccccc1)C(=O)Nc1ccc(C2S/C(=N\c3cccc(F)c3)N(Cc3ccco3)C2=O)cc1 (some centres unmarked) [Compound 134],1000 to 5000 nM
19,O=C(Nc1ccc(C2S/C(=N\c3ccc(N4CCOCC4)cc3)N(Cc3ccccn3)C2=O)cc1)[C@@H]1CCCN1C(=O)NCc1ccccc1 (some centres unmarked) [Compound 135],< 100 nM
